Experimental data published in patent US12268682B2, “Anticancer drug FL118 formulation for treatment of human cancer” (CANGET BIOTEKPHARMA, LLC, priority 2019, dated 2025).

System: UM9 cell line
Test: BLI-based cytotoxicity assay with CAR T-cells or CTL 3AB11 on UM9
Type: cell-based, human
Text: CD138-, BCMA- and CD38-specific CAR T-cells: All CAR T-cells with different specificities were generated with co-stimulatory domains 4-1BB, CD28, or CD28 supplemented with a separate 4-1BB ligand (28zBBL), with the technology as described previously (Kim J H, et al. PLoS One. 2011, 6:e18556; Drent E, et al. Clin Cancer Res. 2019, 25:4014-4025). CD138 CAR T-cells (nBT) were produced using single chain variable fragment (scFv) sequences of the published nBT062 monoclonal antibody (Ikeda H, et al. Clin Cancer Res. 2009, 15:4028-4037). BCMA CAR T-cells were produced using published scFv sequences derived from C11D5.3 monoclonal antibody (US2012/0082661 A1 (Shancer Z, et al. Antib Ther. 2018, 1:19-25) or from BCMA02 CAR (product name bb2121, WO 2016/094304 A2) (Raje N, et al. N Engl J Med. 2019, 380:1726-1737; Friedman K M, et al. Hum Gene Ther. 2018, 29:585-601). The generation and functional analysis of CD38 CAR T-cells with low (B1) or high (028) CD38-affinities has been described previously (Drent E, et al. Clin Cancer Res. 2019, 25:4014-4025; Drent E, et al. Mol Ther. 2017, 25:1946-1958). More detailed information on all CAR construct are listed in Table 1. CAR T-cells were tested 10-14 days after CAR transduction or frozen until testing. After thawing, CAR T-cells were cultured for 16 hours in 60 U/mL recombinant human IL-2 (R&D Systems)-containing culture medium (RPMI 1640 supplemented with heat-inactivated FBS (Sigma) and antibiotics), before using in experiments. Flow cytometry analysis, to determine the transduction efficiency and phenotypic profile of each CAR T-cell, was performed as previously described (Drent E, et al. Clin Cancer Res. 2019, 25:4014 4025; Drent E, et al. Mol Ther. 2017, 25:1946-1958) and illustrated in FIG. 10.
3AB11 was expanded using a feeder cell-cytokine mixture and cryopreserved until further use as described previously (Spaapen R, et al. Clin Cancer Res. 2007, 13:4009-4015).

For `CC[C@@]1(O)C(=O)OCc2c1cc1n(c2=O)Cc2cc3cc4c(cc3nc2-1)OCO4` [FL118], the “BMMSC protective effect against CTL 3AB11 lysis” value (24 hours) was “completely abrogated”, the “combination effect with CTL 3AB11” value (Chou-Talalay) was “synergistic fashion” and the “combination index (CI) values, FL118 and CAR T-cells” value (Chou-Talalay, especially in the presence of BMMSCs) was “below 1”. For the same compound, the “BMMSC-mediated protection against CAR T-cells” value (combined with CAR T-cells, even at doses as low as 3 nM) was “effectively modulated” and the “lysis of MM-cells by FL118 alone” value (regardless of the presence of BMMSCs, 24 hours) was “dose-dependent lysis”.
